Data reported in paper doi:10.1101/161430v2 (biorxiv, 2019).
pIC50, pKi: −log10 of the molar value.

Experiments:
[1] = biological target: T1, human carboxylesterase 2 (CES2, hCES2) (Homo sapiens, UniProt O00748); test: competition with 4-nitrophenyl acetate, […] nm; assay type: biochemical
T1 sequence (O00748 27-559): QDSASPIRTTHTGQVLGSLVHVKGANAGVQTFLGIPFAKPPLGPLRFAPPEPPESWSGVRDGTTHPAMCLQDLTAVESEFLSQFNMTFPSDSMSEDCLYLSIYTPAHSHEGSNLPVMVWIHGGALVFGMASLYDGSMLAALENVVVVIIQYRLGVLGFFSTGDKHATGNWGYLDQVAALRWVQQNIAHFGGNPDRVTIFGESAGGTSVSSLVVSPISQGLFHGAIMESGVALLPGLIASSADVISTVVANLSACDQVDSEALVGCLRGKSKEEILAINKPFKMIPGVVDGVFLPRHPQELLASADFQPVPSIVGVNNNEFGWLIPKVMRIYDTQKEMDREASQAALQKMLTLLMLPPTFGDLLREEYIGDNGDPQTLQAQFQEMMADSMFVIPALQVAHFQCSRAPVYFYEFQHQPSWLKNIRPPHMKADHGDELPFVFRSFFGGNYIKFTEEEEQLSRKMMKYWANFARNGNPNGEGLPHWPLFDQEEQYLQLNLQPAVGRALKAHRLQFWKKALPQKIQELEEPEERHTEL

PC3 = test: in vitro; conditions: read-out: EC50 cmpd 3.10; human, 48 h
in vitro [2] = conditions: human
[3] = biological target: T2, human BChE (butyrylcholinesterase, BuChE) (Homo sapiens, UniProt P06276); test: biochemical
T2 sequence (P06276 29-602): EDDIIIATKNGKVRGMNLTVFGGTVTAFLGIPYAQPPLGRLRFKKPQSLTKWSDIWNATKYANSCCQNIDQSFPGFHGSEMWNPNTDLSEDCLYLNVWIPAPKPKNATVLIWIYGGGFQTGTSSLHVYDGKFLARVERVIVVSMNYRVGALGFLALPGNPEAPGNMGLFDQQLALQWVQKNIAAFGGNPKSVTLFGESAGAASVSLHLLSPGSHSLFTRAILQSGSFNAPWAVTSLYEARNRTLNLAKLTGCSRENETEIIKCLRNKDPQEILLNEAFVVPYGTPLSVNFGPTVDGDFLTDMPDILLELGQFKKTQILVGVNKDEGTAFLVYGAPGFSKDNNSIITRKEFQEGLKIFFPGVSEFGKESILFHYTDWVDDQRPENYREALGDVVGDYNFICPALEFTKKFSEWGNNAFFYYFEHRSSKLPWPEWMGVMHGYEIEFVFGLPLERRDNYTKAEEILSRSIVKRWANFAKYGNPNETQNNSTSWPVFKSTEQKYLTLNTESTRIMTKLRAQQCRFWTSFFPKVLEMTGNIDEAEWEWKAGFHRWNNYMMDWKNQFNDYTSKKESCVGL

[4] = biological target: T3, human AChE (acetylcholinesterase) (Homo sapiens, UniProt P22303); test: biochemical
T3 sequence (P22303 32-614): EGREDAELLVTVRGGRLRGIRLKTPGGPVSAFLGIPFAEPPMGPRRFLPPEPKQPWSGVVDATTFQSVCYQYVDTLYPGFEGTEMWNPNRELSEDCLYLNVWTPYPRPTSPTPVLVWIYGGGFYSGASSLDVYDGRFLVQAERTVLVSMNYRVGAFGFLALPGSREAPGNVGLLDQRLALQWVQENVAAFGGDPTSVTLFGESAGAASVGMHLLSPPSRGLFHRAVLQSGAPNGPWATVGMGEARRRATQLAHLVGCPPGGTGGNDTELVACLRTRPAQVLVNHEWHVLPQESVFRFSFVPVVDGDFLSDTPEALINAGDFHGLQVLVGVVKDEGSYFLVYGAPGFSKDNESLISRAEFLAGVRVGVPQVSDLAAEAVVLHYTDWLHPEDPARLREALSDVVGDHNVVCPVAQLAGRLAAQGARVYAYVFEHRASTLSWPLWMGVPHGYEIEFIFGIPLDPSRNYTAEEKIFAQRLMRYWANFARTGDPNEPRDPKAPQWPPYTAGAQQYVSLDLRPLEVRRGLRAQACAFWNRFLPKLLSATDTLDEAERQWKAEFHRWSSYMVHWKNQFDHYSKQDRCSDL

[5] = biological target: T2, human BChE (butyrylcholinesterase, BuChE); test: Ellman assay, […] nm; assay type: biochemical
[6] = biological target: T4, human carboxylesterase 1 (CES1, hCES1) (Homo sapiens, UniProt P23141); test: competition with 4-nitrophenyl acetate, […] nm; assay type: biochemical
T4 sequence (P23141 18-567): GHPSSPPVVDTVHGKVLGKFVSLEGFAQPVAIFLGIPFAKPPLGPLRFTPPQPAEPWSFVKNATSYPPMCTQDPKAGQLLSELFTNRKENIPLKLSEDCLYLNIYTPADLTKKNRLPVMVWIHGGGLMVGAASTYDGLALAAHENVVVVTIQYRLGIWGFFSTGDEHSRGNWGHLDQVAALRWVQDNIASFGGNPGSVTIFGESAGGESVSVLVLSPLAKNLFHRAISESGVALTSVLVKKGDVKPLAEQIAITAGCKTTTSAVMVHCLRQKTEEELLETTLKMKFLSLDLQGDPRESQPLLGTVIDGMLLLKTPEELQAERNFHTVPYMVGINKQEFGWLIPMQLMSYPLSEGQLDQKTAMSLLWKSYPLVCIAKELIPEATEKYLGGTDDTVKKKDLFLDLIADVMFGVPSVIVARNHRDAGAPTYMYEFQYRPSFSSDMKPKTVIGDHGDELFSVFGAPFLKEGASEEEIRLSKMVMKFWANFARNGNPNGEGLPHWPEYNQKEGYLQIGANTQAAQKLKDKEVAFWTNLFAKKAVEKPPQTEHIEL

[7] = biological target: T4, human carboxylesterase 1 (CES1, hCES1); test: biochemical
Colo205 = test: in vitro; conditions: read-out: EC50 viability, 3.10; human, 48 h
H23 = test: in vitro; conditions: read-out: EC50 viability, 3.10; human, 48 h
HT29 = test: in vitro; conditions: read-out: EC50 viability, 3.10; human, 48 h
MDA-MB-231 = test: in vitro; conditions: read-out: EC50 viability, 3.10; human, 48 h
HeLa = test: in vitro; conditions: read-out: EC50 viability, 3.10; human, 48 h
in vitro [8] = conditions: human, EC50 viability, 3.10
HTC116 = test: in vitro; conditions: read-out: EC50 viability, 3.10; human, 48 h
[9] = biological target: T1, human carboxylesterase 2 (CES2, hCES2); test: biochemical
[10] = biological target: T3, human AChE (acetylcholinesterase); test: Ellman assay, […] nm; assay type: biochemical

| SMILES | pKi [1] | CC50 (PC3) [nM] | CC50 at 48 h (in vitro [2]) [nM] | pIC50 [3] | pIC50 [4] | pKi [5] | pKi [6] | pIC50 [7] | CC50 (Colo205) [nM] | CC50 (H23) [nM] | CC50 (HT29) [nM] | CC50 (MDA-MB-231) [nM] | CC50 (HeLa) [nM] | CC50 at 48 h (in vitro [8]) [nM] | CC50 (HTC116) [nM] | pIC50 [9] | pKi [10] | CC50 at 48 h (in vitro [2]; 263t cells) [nM] |
| --- | --- | --- | --- | --- | --- | --- | --- | --- | --- | --- | --- | --- | --- | --- | --- | --- | --- | --- |
| OB(O)c1cc(Br)cc(Oc2ccccc2)c1 [3.10, compound 3.10] | 8.68 | > 100000 | > 100000 | 6.31 | 4.64 | 7.03 | 8.96 | 8.70 | > 100000 | > 100000 | > 100000 | > 100000 | > 100000 | > 100000 | > 100000 | 8.42 | 5.03 | – |
| OB(O)c1cc(Br)cc(N2CCCC2)c1 [compound 3] | 7.68 | – | – | – | 4.21 | 6.59 | 8.39 | 8.13 | – | – | – | – | – | – | – | 7.43 | 4.60 | > 100000 |
